Experimental data as given in patent US20180311356A1, “METHOD TO INHIBIT ENDOTHELIAL-TO-MESENCHYMAL TRANSITION” (THE CHILDREN'S MEDICAL CENTER CORPORATION, priority 2015, published 2018).

Columns and labels:
[1] = test system: carotid artery endothelial cells (CAEC); assay: EndMT assay with qPCR in TGFβ1-treated CAEC; format: cell-based, Ovine; details: for EndMT and fibrosis marker mRNA in CAEC: presence or absence of inhibitor
Experimental: (§1) Ovine mitral VEC and CAEC were plated at 10,000 cells/cm^2 on gelatin-coated dishes. After 24 hours, EBM-B was replaced with fresh EBM-B containing 1 ng/ml human TGFβ1 (R&D Systems, MN, USA). Cells were harvested with Liberase ([…]) 96 hours later, and used for flow cytometry. Cells were analyzed simultaneously for VE-cadherin, α-SMA and CD45 by flow cytometry as described above.
(§2) Total cellular RNA was extracted from mitral VEC clones (C5, D1, E5, E10 and E10-2) and CAEC (n=2) with an RNeasy Micro extraction kit (Qiagen, Valencia, Calif., #74004). Reverse transcriptase reactions were performed using an iScript cDNA Synthesis Kit (Bio-Rad, CA, USA #170-8890). qPCR was performed using Kapa Sybr Fast ABI Prism 2×qPCR Master Mix (KAPA BioSystems, MA, USA # KK4604). Amplification was carried out in an ABI 7500 (Applied Biosystems, Foster City, Calif.). A standard curve for each gene was generated to determine amplification efficiency. RPS9 was used as housekeeping gene expression reference. Fold increases in gene expression were calculated according to 2 delta Ct method^28,29, with each amplification reaction performed in triplicate.

mitral VEC [2] = assay: Cellular migration assay (Transwell), mitral VEC clones; format: cell-based, Ovine; details: for EndMT-increased migration towards serum and bFGF: TGFβ-treated mitral VEC clones (n=3), inhibitor 1.0 μM 30 min before and during 6 hour assay
Experimental: (§3) The lower chambers contained 0.1% BSA/EBM-2 media alone or EBM with serum and basic FGF as a chemoattractants. Cells were allowed to migrate for 6 hours at 37° C. (FIG. 6) Cells that migrated through the pores were fixed with methanol and stained with Eosin-Y, Azure A and Methylene Blue for visualization and quantification using Three Step Stain Set (VWR, PA, USA #48218-567).

mitral VEC [3] = assay: EndMT assay with qPCR in TGFβ1-treated mitral VEC clones; format: cell-based, Ovine; details: for NFATc1 mRNA / αSMA, Slug, MMP-2, collagen 1, collagen 3, TGFβ1, TGFβ2 and TGFβ3 mRNA levels: inhibitor 0.5 μM during the 4 day TGFβ1 treatment, mitral VEC clones
Experimental: as §1, §2

[4] = test system: carotid artery endothelial cells (CAEC); assay: Cellular migration assay (Transwell), CAEC; format: cell-based, Ovine; details: 6 hour assay; for Migration of CAEC, response to inhibitor: control and TGFβ1-treated CAEC, inhibitor 1.0 μM
Experimental: as §3

TGF-β = details: cited from earlier work
[5] = test system: early stage diffuse cutaneous systemic sclerosis; details: cited from earlier work
[6] = test system: carotid artery endothelial cells (CAEC); assay: EndMT assay with flow cytometry, CAEC; format: cell-based, Ovine; details: TGFβ-treated and non-treated CAECs
Experimental: (§4) Ovine MVs were minced and digested for 30 minutes at 37° C. with Liberase (Roche Diagnostics, IN, USA, #5401119001), a blend of purified collagenases I and II. Isolated cells were fixed using Flow Cytometry Fixation Buffer (R&D Systems, MN, USA, #FC004) and labeled in Flow Cytometry Permeabilization/Wash Buffer I (R&D Systems, MN, USA, #FC005) for 45 minutes (100,000 cells/100 μl Buffer I). Murine anti-human CD45-FITC or -APC (1:50; AbD Serotec, NC, USA, # MCA2220F and #559864), VE-cadherin-PE or -FITC (1:100; R&D Systems, MN, USA, # FAB9381P and AbD Serotec, NC, USA, # AHP628F), and α-smooth muscle actin (αSMA)-APC or -PE (1:100; R&D Systems, MN, USA, # IC1420P and # IC1420A) were used.
as §1

mitral VEC [7] = assay: EndMT assay with flow cytometry, mitral VEC clones; format: cell-based, Ovine
Experimental: as §4, §1

scar formation = details: first clinical trials; intractable glaucoma patients, trabeculectomy; cited from earlier work
TGF-beta3 = molecular target: T1, TGF-beta3 (Homo sapiens, UniProt P10600); details: cited from earlier work
T1 sequence (P10600 301-412 limits assumed): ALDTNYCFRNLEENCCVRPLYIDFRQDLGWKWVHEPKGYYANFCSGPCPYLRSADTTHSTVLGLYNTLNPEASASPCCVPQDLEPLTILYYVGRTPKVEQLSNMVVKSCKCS

[8] = test system: scarring after glaucoma surgery; details: rabbits; cited from earlier work
TGF-beta2 = molecular target: T2, TGF-beta2 (Homo sapiens, UniProt P61812); details: cited from earlier work
T2 sequence (P61812 303-414 limits assumed): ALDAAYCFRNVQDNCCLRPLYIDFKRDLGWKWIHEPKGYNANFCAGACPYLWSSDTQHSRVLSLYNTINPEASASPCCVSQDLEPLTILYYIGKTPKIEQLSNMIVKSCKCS

[9] = listed as CD45 phosphatase inhibitor
[10] = qPCR, listed as CD45 phosphatase inhibitor

## CC(C)(C)C(=O)Nc1ccc2c(c1)C(=O)C(=O)c1ccccc1-2 [CD45 PTPase inhibitor, N-(9,10-dioxo-9,10-dihydro-phenanthren-2-yl)-2,2-dimethyl propionamide]
[1]
  EndMT and fibrosis marker mRNA in CAEC: no changes
[1]; [9]
  EndMT and fibrosis marker mRNA in CAEC: no effect
Mitral VEC [2]
  EndMT-increased migration towards serum and bFGF: significantly inhibited
Mitral VEC [2]; [9]
  EndMT-increased migration towards serum and bFGF: specifically blocks
Mitral VEC [3]; qPCR
  NFATc1 mRNA: restored
  αSMA, Slug, MMP-2, collagen 1, collagen 3, TGFβ1, TGFβ2 and TGFβ3 mRNA levels: significantly reduced
Mitral VEC [3]; [10]
  NFATc1 mRNA: blocks the decrease
  αSMA, Slug, MMP-2, collagen 1, collagen 3, TGFβ1, TGFβ2 and TGFβ3 mRNA levels: reduces
Mitral VEC [3]; summary statement
  induction of 7 EndMT/fibrosis markers (α-SMA, Slug, MMP2, NFATc1, TGFβ2, collagen 1 and collagen 3): blocks
[4]
  Migration of CAEC, response to inhibitor: no response
[4]; [9]
  Migration of CAEC, response to inhibitor: no effect

## Cc1ccc(=O)n(-c2ccccc2)c1 [Pirfenidone, 5-methyl-1-phenyl-2(1H)-pyridone]
TGF-β
  TGF-β promoter activity, TGF-β protein secretion, TGF-β-induced Smad2 phosphorylation and generation of reactive oxygen species: reduces

## CAT-192: a TGF-β1 neutralizing antibody
[5]; in vivo
  adverse events: more adverse events
[5]; phase I/II trial NCT00043706
  effect on early stage diffuse cutaneous systemic sclerosis: did not show effect

## TGFβ1: human TGFβ1 (R&D Systems), used at 1 ng/ml to induce EndMT
[1]
  CD45, VE-cadherin or αSMA mRNA levels in CAEC: No changes
Mitral VEC [2]; mitral VEC clones (n=3), TGFβ1 4 days, 6 hour assay
  migration towards serum and bFGF after TGFβ treatment: significantly increased
[6]
  CD45 or αSMA expression in CAEC, flow cytometry: did not express
Mitral VEC [7]; TGFβ1-treated mitral VEC clones
  α-SMA, flow cytometry: significantly increased
Mitral VEC [7]; TGFβ1-treated mitral VEC, data not shown
  CD11b and CD14 expression, flow cytometry: No expression was detected
Mitral VEC [7]; four additional mitral VEC clones treated with TGFβ1 1 ng/ml 96 hours
  cells positive for CD45: 19-88%
Mitral VEC [7]; mitral VEC clone E10, 1 ng/ml TGFβ1, 96 hours
  CD45 and αSMA expression, flow cytometry: strong induction
Mitral VEC [7]; seven mitral VEC clones, 4 day exposure to TGFβ1
  CD45, flow cytometry: significantly increased
Mitral VEC [3]; TGFβ1-treated mitral VEC clones, qPCR
  Collagen 1, collagen 3, TGFβ1, TGFβ2 and TGFβ3 mRNA transcripts: increased
Mitral VEC [3]; TGFβ1-treated mitral VEC, qPCR
  Slug, MMP2 and NFATc1 mRNA: modulated as expected
Mitral VEC [3]; five mitral VEC clones, TGFβ1 4 days, qPCR
  CD45 and αSMA mRNA: significant increases
[4]; CAEC
  migration of CAEC after TGFβ treatment: no increase

B1: CAT-152: fully human TGF-beta2 neutralizing antibody (antibody, chains of the INN, looked up, V domains shown)
VH: EVQLVESGGGVVQPGRSLRLSCAASGFTFSSYGMHWVRQAPGKGLEWVAVIWYDGSNKYYADSVKGRFTISRDNSKNTLYLQMDSLRAEDTAVYYCGRTLESSLWGQGTLVTVSS
VL: SSELTQDPAVSVALGQTVRITCQGDSLRSYYASWYQQKPGQAPVLVIYGKNNRPSGIPDRFSGSSSGNTASLTITGAQAEDEADYYCNSRDSSSTHRGVFGGGTKLTVL
Scar formation
  scar formation: possible effects
TGF-beta3
  affinity for TGF-beta3: lower affinity
[8]
  scarring after glaucoma surgery: capable of inhibiting
TGF-beta2
  affinity for TGF-beta2: high affinity
